From publication PMC10955571 (ACS Omega, 2024)
Where a SMILES comes first, the peptide text is derived from it. The star is where a group is joined. Isobutyryl = CC(C)C(=O)*; Cbz = O=C(OCc1ccccc1)*; OAll = C=CCO*

Key:
[1] = target: BACE-1 (Homo sapiens, UniProt P56817); assay: BACE-1 FRET inhibition assay; format: biochemical
[2] = target: Human AChE (Homo sapiens, UniProt P22303); assay: AChE inhibition, Ellman assay; format: biochemical
[3] = target: Aβ1–42 (Homo sapiens, UniProt P05067); assay: Inhibition of Aβ1–42 self-induced aggregation, Thioflavin-T fluorometric assay; format: biochemical; conditions: read-out: % inhibition of Aβ1–42 aggregation at 10 μM, 10 μM compound
Chain of Aβ1–42 (P05067 672-713): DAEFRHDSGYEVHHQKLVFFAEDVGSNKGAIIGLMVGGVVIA

[4] = system: scopolamine-induced memory impairment in mice; assay: Morris water maze test, scopolamine-induced memory impairment; format: in vivo, Swiss albino mice; conditions: MWM, one animal from each group; for time taken by the animals to reach the platform, after the training (5th day): basal reading before any treatment; for time taken by the animals to reach the platform, after treatment with the test compound/donepezil (11th day): before scopolamine; for time taken by the animals to reach the platform, after treatment with the test compound/donepezil (11th day) / time taken by the animals to reach the platform, after treatment with scopolamine (14th day): compounds 10 mg/kg, donepezil 3 mg/kg; for time taken by the animals to reach the platform, after treatment with scopolamine (14th day): scopolamine 2 mg/kg i.p. days 12-14
[5] = PAMPA-BBB permeability; conditions: for Papp at 5 h, 200 μM: PAMPA, pH 7.4
[6] = Plasma stability assay; format: in vitro ADME

Chain of BACE-1 (P56817 46-501): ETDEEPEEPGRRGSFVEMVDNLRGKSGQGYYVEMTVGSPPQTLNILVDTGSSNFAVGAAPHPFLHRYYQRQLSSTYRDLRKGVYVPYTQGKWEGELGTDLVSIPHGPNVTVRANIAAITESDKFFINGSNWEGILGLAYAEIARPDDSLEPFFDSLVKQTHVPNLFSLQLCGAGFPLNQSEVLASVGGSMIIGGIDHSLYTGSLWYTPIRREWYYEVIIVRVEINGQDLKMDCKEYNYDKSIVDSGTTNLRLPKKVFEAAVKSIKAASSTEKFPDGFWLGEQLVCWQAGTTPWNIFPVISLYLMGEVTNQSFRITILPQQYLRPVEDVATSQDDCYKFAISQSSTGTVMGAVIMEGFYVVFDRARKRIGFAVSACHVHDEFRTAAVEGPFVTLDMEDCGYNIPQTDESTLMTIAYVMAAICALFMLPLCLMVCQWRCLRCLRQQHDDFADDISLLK
Chain of Human AChE (P22303 32-614): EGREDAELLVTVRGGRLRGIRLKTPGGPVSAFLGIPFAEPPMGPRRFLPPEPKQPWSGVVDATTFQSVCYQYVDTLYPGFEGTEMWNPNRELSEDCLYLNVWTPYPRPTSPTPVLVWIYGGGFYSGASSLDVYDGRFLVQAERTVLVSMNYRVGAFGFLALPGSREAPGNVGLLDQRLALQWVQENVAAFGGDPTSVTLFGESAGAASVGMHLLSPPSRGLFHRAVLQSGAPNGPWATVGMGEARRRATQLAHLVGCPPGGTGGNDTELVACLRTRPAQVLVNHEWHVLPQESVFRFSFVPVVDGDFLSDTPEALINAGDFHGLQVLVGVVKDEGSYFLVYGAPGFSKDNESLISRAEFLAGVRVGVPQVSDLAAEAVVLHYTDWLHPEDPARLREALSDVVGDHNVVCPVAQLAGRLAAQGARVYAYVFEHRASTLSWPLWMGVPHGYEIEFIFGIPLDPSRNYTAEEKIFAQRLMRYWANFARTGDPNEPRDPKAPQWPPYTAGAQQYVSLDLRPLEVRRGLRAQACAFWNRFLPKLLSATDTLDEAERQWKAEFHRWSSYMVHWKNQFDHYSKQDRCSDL

Row | SMILES | IC50 [1] [µM] | IC50 [2] [µM] | inhibition at 10 µM [3] [%] | time taken by the animals to reach the platform, after the training (5th day) [4] [s] | time taken by the animals to reach the platform, after treatment with the test compound/donepezil (11th day) [4] [s] | time taken by the animals to reach the platform, after treatment with scopolamine (14th day) [4] [s] | Papp at 5 h, 200 μM [5] [×10⁻⁶ cm/s] | also measured
1 | COC(=O)[C@H](C)NC(=O)[C@@H]1CCCN1C(=O)CNC(=O)C(C)C [Compound 13, Isobut-Gly-Pro-Ala-OMe] (Isobutyryl-Gly-Pro-Ala-OMe) | 0.2 ± 0.03 | 7 ± 1 | 36.3 ± 4.3 |  |  |  |  | 
2 | CC(C)C(=O)NCC(=O)N1CCC[C@H]1C(=O)N[C@@H](C)C(=O)O [Compound 14, Isobut-Gly-Pro-Ala-OH] (Isobutyryl-Gly-Pro-Ala-OH) | 0.6 ± 0.05 | 8 ± 1.2 |  |  |  |  |  | 
3 | C=CCOC(=O)[C@H](C)NC(=O)[C@@H]1CCCN1C(=O)CNC(=O)C(C)C [Compound 15, Isobut-Gly-Pro-Ala-O-allyl] (Isobutyryl-Gly-Pro-Ala-OAll) | 0.05 ± 0.001 | 0.05 ± 0.01 | > 50 | 11 | 11 | 93 | 1.8 | 
4 | CC(C)=CCOC(=O)[C@H](C)NC(=O)[C@@H]1CCCN1C(=O)CNC(=O)C(C)C [Compound 16, Isobut-Gly-Pro-Ala-O-dimethylallyl] | 0.2 ± 0.01 | 1 ± 0.1 |  |  |  |  |  | 
5 | CC(C)C(=O)NCC(=O)N1CCC[C@H]1C(=O)N[C@@H](C)C(=O)OC/C=C/c1ccccc1 [Compound 17, Isobut-Gly-Pro-Ala-O-Cinnamyl] | 0.1 ± 0.01 | 0.9 ± 0.1 |  |  |  |  | 3.64 | 
6 | CC(C)=CCC/C(C)=C/COC(=O)[C@H](C)NC(=O)[C@@H]1CCCN1C(=O)CNC(=O)C(C)C [Compound 18, Isobut-Gly-Pro-Ala-O-Geranyl] | 20 ± 2 | 7 ± 1.3 | 12.5 ± 2.1 | 5 | 5 | 71 | 3.17 | 
7 | COC(=O)[C@H](C)NC(=O)[C@@H]1CCCN1C(=O)CNC(=O)OCc1ccccc1 [Compound 21, Cbz-Gly-Pro-Ala-OMe] (Cbz-Gly-Pro-Ala-OMe) | 30 ± 4.1 | 1000 ± 9.5 |  |  |  |  |  | IC50 AChE ([2]; Ellman assay, mean ± SEM): millimolar range
8 | C[C@H](NC(=O)[C@@H]1CCCN1C(=O)CNC(=O)OCc1ccccc1)C(=O)O [Compound 22, Cbz-Gly-Pro-Ala-OH] (Cbz-Gly-Pro-Ala-OH) | 0.3 ± 0.02 | 0.1 ± 0.01 |  |  |  |  |  | 
9 | C=CCOC(=O)[C@H](C)NC(=O)[C@@H]1CCCN1C(=O)CNC(=O)OCc1ccccc1 [Compound 23, Cbz-Gly-Pro-Ala-O-Allyl] (Cbz-Gly-Pro-Ala-OAll) | 1 ± 0.2 | 0.8 ± 0.1 |  |  |  |  |  | 
10 | CC(C)=CCOC(=O)[C@H](C)NC(=O)[C@@H]1CCCN1C(=O)CNC(=O)OCc1ccccc1 [Compound 24, Cbz-Gly-Pro-Ala-O-dimethylallyl] | 20 ± 2.3 | 0.6 ± 0.03 |  |  |  |  |  | 
11 | C[C@H](NC(=O)[C@@H]1CCCN1C(=O)CNC(=O)OCc1ccccc1)C(=O)OC/C=C/c1ccccc1 [Compound 25, Cbz-Gly-Pro-Ala-O-cinnamyl] | 0.02 ± 0.001 | 1 ± 0.2 | > 50 | 20 | 15 | 15 | 17.8 | change in the concentration in plasma ([6]; 50 μM in plasma pH 7–8, 37 °C, 12 h incubation): ~10%; effect of plasma on the half-life time ([6]; 50 μM in plasma, 37 °C): no remarkable effect on the half-life time
12 | CC(C)=CCC/C(C)=C/COC(=O)[C@H](C)NC(=O)[C@@H]1CCCN1C(=O)CNC(=O)OCc1ccccc1 [Compound 26, Cbz-Gly-Pro-Ala-O-Geranyl] | 0.1 ± 0.01 | 0.7 ± 0.1 | 31.8 ± 3.2 | 7 | 39 | 45 |  | 
13 | COC(=O)[C@H](C)NC(=O)[C@@H]1CCCN1C(=O)CN [Compound 30, NH2-Gly-Pro-Ala-OMe] (H-Gly-Pro-Ala-OMe) | 0.02 ± 0.001 | 2 ± 1.1 | 33.7 ± 4.2 | 20 | 12 | 65 | 8.98 | 
14 | C(=C\n1nncc1COc1ccc2ccccc2c1-c1c(OCc2cnnn2/C=C/Cc2ccccc2)ccc2ccccc12)/Cc1ccccc1 [Compound 33, 2,2′-Bis((1-((E)-3-phenylprop-1-en-1-yl)-1H-1,2,3-triazol-5-yl)methoxy)-1,1′-binaphthalene] | 1 ± 0.1 | 7 ± 1.4 | 43.2 ± 4.7 |  |  |  | 1.59 | 
15 | Cn1c(=O)c2c(ncn2C)n(C)c1=O [caffeine, reference compound] |  |  |  |  |  |  | 10.9 | Pe (PAMPA-BBB) ([5]; 200 μM in PBS pH 7.4, 5 h, room temperature): 10.9 × 10^–6 cm s^–1
16 | COc1cc2c(cc1OC)C(=O)C(CC1CCN(Cc3ccccc3)CC1)C2 (stereo not shown) [donepezil, reference compound] |  |  | 10.9 ± 1.4 | 15 | 17 | 10 |  | 
17 | CCn1cc(C(=O)O)c(=O)c2cc(F)c(N3CCNCC3)cc21 [norfloxacin, reference compound] |  |  |  |  |  |  | 1.73 | 
18 | CN1[C@@H]2C[C@@H](OC(=O)[C@H](CO)c3ccccc3)C[C@H]1[C@@H]1O[C@@H]12 [scopolamine, reference compound] |  |  |  |  |  | 77 |  | 
